Patent US20100311691A1, “COMPOSITIONS OF S-ALKYLISOTHIOURONIUM DERIVATIVES FOR TREATING UPPER RESPIRATORY CONGESTION” (priority 2007, published 2010)

Key:
[1] = tested on: nasal congestion, rhino-sinusitis; test: Example 4: case report Patient A (rhino-sinusitis), nasal drops; format: in vivo; settings: for repeated administrations needed: nasal drops
Protocol: Patient A was admitted with a diagnosis of rhino-sinusitis. […] Clinical examination indicated hyperemia of the nasal mucosa, rhinorrhea, nasal obstruction with narrowing of the lower and medium nasal cornets. The patient was treated with, antibacterial medication, and the sinuses were drained by the introduction of antiseptics. In addition, 2-3 nasal drops of S-ethylisothiouronium diethylphosphate 1% were administered. The patient was treated during 3 days. As a result of the treatment with S-ethylisothiouronium diethylphosphate, an amelioration of the clinical symptoms was achieved 1-2 days earlier than that achieved by the treatment with S-ethylisothiouronium bromide (designated Olysin). Also, the repeated administration of S-ethylisothiouronium diethylphosphate was reduced to 2-3 times per day, and not 4-5 times as was necessary when administering Olysin.

nasal congestion = settings: unpublished studies; cited from earlier work
[2] = tested on: nasal congestion, rhinitis and acute sinusitis; test: Example 4: case report Patient B (rhinitis and acute sinusitis), nasal drops; format: in vivo
Protocol: Patient B was admitted with a diagnosis of rhinitis and acute sinusitis. The patient complained of headaches, dizziness, and common cold. […] The radiological examination confirmed acute sinusitis. The patient was treated by puncture of the sinuses with the introduction of antiseptics, Cefazoline 1.0 administered intramuscularly 2 times per day, Loratidin tablets 10 mg and, locally, nasal drops of S-ethylisothiouronium diethylphosphate 2% were used 3-4 times per day. The treatment with S-ethylisothiouronium diethylphosphate led to an amelioration of the clinical symptoms and hyperemia of the nasal mucosa 1-2 days earlier than that obtained by the treatment with Olysin.

[3] = tested on: upper respiratory tract and oral pharyngeal congestion; test: Summary comparison of diethylphosphate and bromide in upper respiratory tract and oral pharyngeal congestion; format: in vivo, subjects; settings: summary statement

| Compound | repeated administrations needed [1] | nasal decongestion (nasal congestion) | side effects (nasal congestion) | adverse effects / tachyphylaxis ([1]; 1% nasal drops) | amelioration of clinical symptoms earlier than with S-ethylisothiouronium bromide (Olysin) ([1]; 2-3 nasal drops of 1%, treated during 3 days, with antibacterial medication and sinus drainage) | adverse effects ([2]; 2% nasal drops) | amelioration of clinical symptoms and hyperemia of the nasal mucosa earlier than with Olysin ([2]; 2% nasal drops 3-4 times per day, with Cefazoline, Loratidin, antiseptics) | efficiency in alleviating congestion and symptoms, relative to S-ethylisothiouronium bromide [3] | side effects [3] |
| --- | --- | --- | --- | --- | --- | --- | --- | --- | --- |
| Br.CCSC(=N)N [Olysin, S-ethylisothiouronium bromide] | 4-5 times per day | moderate and short-term nasal decongestions | harmful side effects |  |  |  |  |  |  |
| S-ethylisothiouronium diethylphosphate | 2-3 times per day |  |  | No adverse effects or tachyphylaxis | 1 to 2 days | No adverse effects | 1 to 2 days | more efficient than S-ethylisothiouronium bromide | little or no side effects |
